Assay results: US7638540B2, “Benzofuran compound and medicinal composition containing the same” (The New Industry Research Organization, priority 2003, dated 2009)

A melting point of 176.7 to 179.7 °C was found for COc1ccc(CCNC(=O)/C=C(\C)c2ccc3oc(C(C)=O)c(NC(=O)/C(C#N)=C(/C)O)c3c2)cc1OC [Example 103, N-(2-acetyl-5-{(E)-2-[2-(3,4-dimethoxyphenyl)ethylcarbamoyl]-1-methylvinyl}benzofuran-3-yl)-2-cyano-3-hydroxy-(Z)-2-butenamide] in this work.
A melting point of 196 to 197.7 °C was found for COc1ccc2oc(-c3csc(N)n3)c(-c3ccc(Cl)cc3)c2c1 [Example 218, 4-[3-(4-chlorophenyl)-5-methoxybenzofuran-2-yl]thiazol-2-ylamine] in this work.
A melting point of 182.5 to 184.7 °C was found for COc1ccc(/C=C/C(=O)Nc2c(C(C)=O)oc3ccc(Br)cc23)cc1 [Example 178, (E)-N-(2-acetyl-5-bromobenzofuran-3-yl)-3-(4-methoxyphenyl)acrylamide] in this work.
A melting point of 98.9 to 101.2 °C was found for COc1cccc2cc(/C(Cl)=C/C=C/C#N)oc12 [Example 61, (2E,4Z)-5-chloro-5-(7-methoxybenzofuran-2-yl)penta-2,4-dienenitrile] in this work.
A melting point of 216.4 to 218.4 °C was found for CCN(CC)C(=O)/C=C(\C)c1ccc2oc(C(=O)c3ccc(C#N)cc3)c(N)c2c1 [Example 22, (E)-3-[3-amino-2-(4-cyanobenzoyl)benzofuran-5-yl]-N,N-diethyl-2-butenamide] in this work.
A melting point of 223 to 229 °C was found for COc1cccc(NC(=O)c2oc3ccc(Br)cc3c2NC(=O)c2cnoc2C)c1 [Example 183, 5-methyl-isoxazole-4-carboxylic acid [5-bromo-2-(3-methoxyphenylcarbamoyl)benzofuran-3-yl]amide] in this work.
A melting point of 80.6 to 82.1 °C was found for CCN(CC)C(=O)/C=C(\C)c1ccc(OCCCCl)c2oc(C(C)=O)cc12 [Example 137, (E)-3-[2-acetyl-7-(3-chloropropoxy)benzofuran-4-yl]-2-butenoic acid diethylamide] in this work.
A melting point of 206.6 to 209.5 °C was found for COc1cccc2c(NC(C)=O)c(C(C)=O)oc12 [Example 208, N-(2-acetyl-7-methoxybenzofuran-3-yl)acetamide] in this work.
A melting point of 91.3 to 93.2 °C was found for CCCCc1oc2ccccc2c1/C(Cl)=C/C=C/C(=O)Nc1ccc(OC)cc1 [Example 135, (2E,4Z)-5-(2-butylbenzofuran-3-yl)-5-chloropenta-2,4-dienoic acid (4-methoxyphenyl)amide] in this work.
A melting point of 115.5 to 117 °C was found for C/C(=C\C(=O)N1CCOCC1)c1ccc2oc(C(=O)c3ccccc3)cc2c1 [Example 25, (E)-3-(2-benzoylbenzofuran-5-yl)-1-morpholino-2-buten-1-one] in this work.
A melting point of 245.4 to 249.5 °C was found for N#CCC(=O)Nc1c(C(=O)c2ccc(Cl)cc2)oc2ccc(Br)cc12 [Example 197, N-[5-bromo-2-(4-chlorobenzoyl)benzofuran-3-yl]-2-cyanoacetamide] in this work.
A melting point of 206 to 208 °C was found for CC(=O)c1oc2ccc(Br)cc2c1NC(=O)c1cnoc1C [Example 65, N-(2-acetyl-5-bromobenzofuran-3-yl)-5-methylisoxazole-4-carboxamide] in this work.
A melting point of 204 to 206 °C was found for CCN(CC)C(=O)/C=C(\C)c1ccc2oc(C(=O)Nc3cccc(OC)c3)c(NC(=O)c3cnoc3C)c2c1 [Example 186, (E)-5-methyl-isoxazole-4-carboxylic acid [5-((E)-2-diethylcarbamoyl-1-methylvinyl)-2-(3-methoxyphenylcarbamoyl)benzofuran-3-yl]amide] in this work.
A melting point of 172 to 174 °C was found for CCN(CC)C(=O)/C=C(\C)c1ccc2oc(C(=O)Nc3cccc(OC)c3)c(NC(=O)/C(C#N)=C(/C)O)c2c1 [Example 189, 3-(2-cyano-3-hydroxy-(Z)-2-butenoylamino)-5-((E)-2-diethylcarbamoyl-1-methylvinyl)-benzofurane-2-carboxylic acid(3-methoxyphenyl)amide] in this work.
A melting point of 206.1 to 208.1 °C was found for CC(=O)c1oc2ccccc2c1NC(=O)/C(C#N)=C(/C)O [Example 66, (Z)-N-(2-acetylbenzofuran-3-yl)-2-cyano-3-hydroxy-2-butenamide] in this work.
A melting point of 243.4 to 246.4 °C was found for COc1ccc(NC(=O)/C(C#N)=C(/C)O)c2cc(C(C)=O)oc12 [Example 112, (Z)-N-(2-acetyl-7-methoxybenzofuran-4-yl)-2-cyano-3-hydroxy-2-butenamide] in this work.
A melting point of 112.7 to 114.3 °C was found for COc1ccc(CCNC(=O)/C=C(\C)c2ccc3oc(C(C)=O)cc3c2)cc1OC [Example 26, (E)-3-(2-acetylbenzofuran-5-yl)-N-[2-(3,4-dimethoxyphenyl)ethyl]-2-butenamide] in this work.
A melting point of 248.7 to 250.3 °C was found for O=C(/C=C/c1ccccc1)Nc1c(Cl)oc2ccc(Br)cc12 [Example 180, (E)-N-(5-bromo-2-chlorobenzofuran-3-yl)-3-phenylacrylamide] in this work.
A melting point of 168.2 to 170.1 °C was found for COc1ccc2c(NC(=O)c3cnoc3C)c(C(C)=O)oc2c1 [Example 83, N-(2-acetyl-6-methoxybenzofuran-3-yl)-5-methylisoxazole-4-carboxamide] in this work.
A melting point of 116 to 117.5 °C was found for CCN(CC)C(=O)/C=C(\C)c1cc(Cl)cc2cc(C(C)=O)oc12 [Example 170, (E)-3-(2-acetyl-5-chloro-benzofuran-7-yl)-2-butenoic acid diethylamide] in this work.
A melting point of 98 to 100 °C was found for C/C=C/C(=O)NC(C)c1cc2ccccc2o1 (centres unmarked) [Example 192, (E)-2-butenoic acid (1-(benzofuran-2-yl)ethyl)amide] in this work.
A melting point of 99.5 to 101 °C was found for CCOC(=O)/C=C(\C)c1ccc2oc(/C(Cl)=C/C=O)cc2c1 [Example 146, Ethyl 3-[2-(1-chloro-3-oxo-(Z)-propenyl)benzofuran-5-yl]-(E)-2-butenoate] in this work.
A melting point of 93.9 to 94.5 °C was found for COc1ccc(NC(=O)/C=C(\C)c2cc3cccc(OC(c4ccccc4)c4ccccc4)c3o2)cc1OC [Example 45, (E)-3-(7-benzhydryloxybenzofuran-2-yl)-N-(3,4-dimethoxyphenyl)-2-butenamide] in this work.
A melting point of 221.1 to 222 °C was found for CC(=O)Nc1c(C(=O)/C=C/N(C)C)oc2ccc(Br)cc12 [Example 194, (E)-N-[5-bromo-2-(3-dimethylaminoacryloyl)benzofuran-3-yl]acetamide] in this work.
A melting point of 109 to 113 °C was found for COc1ccc(CCNC(=O)/C=C(\C)c2cc3cccc(OC(C)c4ccccc4)c3o2)cc1OC (centres unmarked) [Example 164, (E)-3-[7-(1-phenylethoxy)benzofuran-2-yl]-2-butenoic acid [2-(3,4-dimethoxyphenyl)ethyl]amide] in this work.
A melting point of 216.8 to 218.7 °C was found for COc1ccc2oc(-c3csc(NC(=O)c4cnoc4C)n3)c(-c3ccc(Cl)cc3)c2c1 [Example 220, 5-methylisoxazole-4-carboxylic acid {4-[3-(4-chlorophenyl)-5-methoxybenzofuran-2-yl]thiazol-2-yl}amide] in this work.
A melting point of 174.2 to 176.5 °C was found for COc1ccc(/C=C/C(=O)c2oc3ccc(Br)cc3c2NC(=O)CNCc2ccccc2)cc1 [Example 196, (E)-2-benzylamino-N-{5-bromo-2-[3-(4-methoxyphenyl)acryloyl]benzofuran-3-yl}acetamide] in this work.
A melting point of 90 to 91.8 °C was found for COc1cccc2cc(C(C)NC(C)=O)oc12 (centres unmarked) [Example 191, N-[1-(7-methoxybenzofuran-2-yl)ethyl]acetamide] in this work.
A melting point of 214.4 to 215.1 °C was found for CC(=O)c1oc2ccc(Br)cc2c1NC(=O)CC#N [Example 193, N-(2-acetyl-5-bromobenzofuran-3-yl)-2-cyanoacetamide] in this work.
